One data set relates to MC38 cells. The data set can be described thus: MC38 subcutaneous tumor model in C57BL/6 WT and ARKO mice, tumor growth. Format: in vivo, mouse. The conditions noted are these: both the CRC models (CT26 and MC38). The method, then:
FIG. 7A-7D: AR deficiency/inhibition increases the efficacy of anti-PD1, decreases immune-related toxicities induced by anti-PD1 in CRC model, MC38. MC38 cells were inoculated subcutaneous in C57BL/6 WT and aldose reductase knockout (ARKO) mice. When tumors became palpable (approximately 40-43 mm^3), mice were randomized and treated with anti-PD-1 (twice a week), AR inhibitor (25 mg/kg/day in drinking water). MC38 tumor was left untreated in Con WT and ARKO or treated with Fid in WT, anti-PD-1 (PD1) in WT and ARKO or combination of both (Combo) in WT mice. Con WT and ARKO mice were also treated with isotype controls (PD-1 iso). […] Tumor growth was measured twice a week and animals were euthanized when the tumor volume reaches 2000 mm^3 in the control mice (approximately 27 days). […] Isolated TILs from tumors were analyzed by flow cytometry for intracellular staining of IFN-γ and granzyme B to analyze the effector function of CD8^+ T and NK cells in TILs. […]
MC38 cells were inoculated subcutaneous in C57BL/6 WT and aldose reductase knockout (ARKO) mice. […] Tumor growth was measured twice a week and animals were euthanized when the tumor volume reaches 2000 mm^3 in the control mice (approximately 27 days). […] Isolated TILs from tumors were analyzed by flow cytometry for intracellular staining of IFN-γ and granzyme B to analyze the effector function of CD8^+ T and NK cells in TILs. […]

The next data set relates to CT-26 cells. The experiment in a line: CT-26 syngeneic Balb/c mouse tumor model, tumor growth. It counts as in vivo. As to conditions: CT-26 syngeneic mouse model.
For data set [1] the following is noted: Phase-III clinical trial, diabetic nephropathy; cited from earlier work.
Data set [2] is described as follows: Cardiotoxicity associated with anthracycline drugs. As to conditions: earlier studies of the inventors.
Another data set relates to colorectal cancer cells. The experiment in a line: Sensitivity of colorectal cancer cells to doxorubicin. Format: cell-based. As to conditions: earlier studies of the inventors. From the text: The inventors have also shown that AR inhibition prevents colorectal cancer cells growth in tissue culture, nude mouse xenografts, and chemically-induced animal models of colorectal cancer. Based on these studies, the inventors investigated whether an AR inhibitor such as fidarestat could be used as combination therapy along with immune checkpoint inhibitor such as an anti-PD1 antibody resulting in an increase in the immunotherapeutic efficacy of anti-PD1 and prevent CRC growth.

Method for CT-26 cells: CT-26 cells (0.5×10^6) were injected subcutaneously into the flanks of Balb/c mice (n=4-7) on day 0. When tumor volume reaches approximately 45 mm^3, the mice were injected (i.p.) anti-PD-1, 200 μg/mouse, twice per week. Aldose reductase inhibitor (ARI) (25 mg/kg/day) were given in drinking water or by gavage. CT26 tumor were left untreated (Con) or treated with fidarestat (Fid), anti-PD-1 (PD1) or combination of both (Combo). Con mice were also treated with isotype matched control antibodies (PD-1 iso). Tumor growth was measured twice per week and animals were euthanized when the tumor volume reaches 2000 mm^3 in the control mice (˜30 days). Tumor volume (A) and tumor weight (B) were measured. Data Mean S.E.M. P<0.05; *P<0.05; **P<0.01 by one-way ANOVA followed by Dunnet and Tukey's multiple comparison test.

For `NC(=O)[C@@H]1C[C@]2(NC(=O)NC2=O)c2cc(F)ccc2O1` [fidarestat, (2S,4S)-6-fluoro-2′,5′-dioxospiro(chroman-4,4′-imidazolidine)-2-carboxamide], the “efficacy of anti-PD1 and tumor growth” value with MC38 cells is “increases the efficacy of anti-PD1 and decreases the tumor growth”. Besides, the “sensitivity of anti-PD1 immunotherapy” value in the data set on CT-26 cells is “significantly increases the sensitivity of anti-PD1 immunotherapy”. In data set [1], the side effects result is recorded as “no major side effects”. For the same compound, the “cardiotoxicity associated with anthracycline drugs” value in data set [2] was “prevented cardiotoxicity”. Further, the “sensitivity of colorectal cancer cells to doxorubicin” value with colorectal cancer cells is recorded as “increased the sensitivity”.

The values are drawn from US12090142B2, “Combination therapy for the treatment of cancer” (The Board of Regents of the University of Texas System, priority 2018, dated 2024).
